Reference: patent US20210038587A1, “METHODS AND COMPOSITIONS FOR TREATING NON-ERK MAPK PATHWAY INHIBITOR-RESISTANT CANCERS” (BIOMED VALLEY DISCOVERIES, INC., priority 2013, published 2021)

Columns and labels:
A375 = assay: Reverse Phase Protein Analysis (RPPA); type: cell-based, human; conditions: % change from DMSO (matched cell line)
Description: (§1) Control wells were treated with DMSO at 0.1% (v/v) for 6 hours prior to cell lysate generation. Samples were then analyzed using reverse-phase protein microarray technology (Theranostics Health).
(§2) Cell lines with common alterations in BRAF and RAS were assayed: BRAF^V600E mutant lines A375, Colo205, and HT29; KRAS^G12C-mutant cell line MIAPACa-2; KRAS^G13D-mutant cell line HCT116; and AN3Ca with atypical HRAS^F82L mutation. Changes in protein levels are shown as a percentage change from dimethyl sulfoxide (DMSO)-treated parental control (FIG. 32A and Table 23).

HCT116 = assay: Reverse Phase Protein Analysis (RPPA); type: cell-based, human; conditions: % change from DMSO (matched cell line)
Description: as §1, §2

Cn1nccc1Nc1nccc(-c2ccn([C@H](CO)c3ccc(Cl)c(F)c3)c(=O)c2)n1 [GDC-0994]
Avg (4ebp1 T70) (A375): −29.47%
Avg (Akt S473) (A375): 53.66%
Avg (Akt) (A375): −20.7%
Avg (Bad S136) (A375): −6.21%
Avg (Bad S155) (A375): −13.31%
Avg (Bak) (A375): 2.76%
Avg (Bax) (A375): 3.97%
Avg (Bcl 2) (A375): −3.13%
Avg (Bcl2 S70) (A375): 6.3%
Avg (Bcl 2 T56) (A375): −4.1%
Avg (Bim) (A375): 9.8%
Avg (CREB S133) (A375): −1.18%
Avg (Caspase 3 CL D175) (A375): −16.74%
Avg (Caspase 7 Cl D198) (A375): −5.53%
Avg (Chk1) (A375): −7.72%
Avg (Chk1 S345) (A375): −18.35%
Avg (Cyclin D1) (A375): −81.65%
Avg (ERK 1 2) (A375): 31.55%
Avg (ERK 1 2 T202 Y204) (A375): 142.37%
Avg (MAK1 S360) (A375): −5.21%
Avg (Mcl1) (A375): −9.09%
Avg (Raptor S792) (A375): −15.93%
Avg (Raptor) (A375): −14.32%
Avg (Rictor) (A375): −23.29%
Avg (Stat1) (A375): −5.67%
Avg (Stat3) (A375): 14.24%
Avg (bad S112) (A375): −55.32%
Avg (c Fos) (A375): −12.46%
Avg (c Myc) (A375): −9.11%
Avg (mTOR S2448) (A375): −23.61%
Avg (mTOR S2481) (A375): −19.37%
Avg (mTOR) (A375): −6.2%
Avg (p70 S6 Kinase) (A375): −18.11%
Avg (p90 RSK S380) (A375): −60.74%
Avg(S6 Ribo Prot S235 236) (A375): −87.61%
Avg(S6 Ribo Prot S240 244) (A375): −80.3%
Avg(Tuberin TSC2 Y1571) (A375): −16.74%
Avg(p70 S6 Kinase S371 S394) (A375): −17.34%
Avg(p70 S6 Kinase T389 T412) (A375): −31.9%
Avg (4ebp1 T70) (HCT116): 20.5%
Avg (Akt S473) (HCT116): 4.69%
Avg (Akt) (HCT116): −6.13%
Avg (Bad S136) (HCT116): −1.24%
Avg (Bad S155) (HCT116): −19.71%
Avg (Bak) (HCT116): −1.74%
Avg (Bax) (HCT116): −20.11%
Avg (Bcl 2) (HCT116): −4.56%
Avg (Bcl2 S70) (HCT116): −12.53%
Avg (Bcl 2 T56) (HCT116): −11.96%
Avg (Bim) (HCT116): 6.2%
Avg (CREB S133) (HCT116): −8.56%
Avg (Caspase 3 CL D175) (HCT116): −8.36%
Avg (Caspase 7 Cl D198) (HCT116): −13.99%
Avg (Chk1) (HCT116): 2.28%
Avg (Chk1 S345) (HCT116): −18.77%
Avg (Cyclin D1) (HCT116): −63.59%
Avg (ERK 1 2) (HCT116): −1.9%
Avg (ERK 1 2 T202 Y204) (HCT116): 526.64%
Avg (MAK1 S360) (HCT116): −12.93%
Avg (Mcl1) (HCT116): −4.77%
Avg (Raptor S792) (HCT116): −15.77%
Avg (Raptor) (HCT116): −6.2%
Avg (Rictor) (HCT116): −10.98%
Avg (Stat1) (HCT116): −6.32%
Avg (Stat3) (HCT116): −0.25%
Avg (bad S112) (HCT116): −12.36%
Avg (c Fos) (HCT116): −10.36%
Avg (c Myc) (HCT116): −12.03%
Avg (mTOR S2448) (HCT116): −19.33%
Avg (mTOR S2481) (HCT116): −18.34%
Avg (mTOR) (HCT116): −4.85%
Avg (p70 S6 Kinase) (HCT116): −9.9%
Avg (p90 RSK S380) (HCT116): −22.25%
Avg(S6 Ribo Prot S235 236) (HCT116): −94.82%
Avg(S6 Ribo Prot S240 244) (HCT116): −95.1%
Avg(Tuberin TSC2 Y1571) (HCT116): −9.4%
Avg(p70 S6 Kinase S371 S394) (HCT116): −11.47%
Avg(p70 S6 Kinase T389 T412) (HCT116): −24.73%
